Results reported in patent US9464064B2, “HCV helicase inhibitors and methods of use thereof” (University of Kansas, priority 2011, dated 2016).

How the values were obtained:
[1] = Hepatic microsome stability, mouse; format: in vitro ADME; conditions: percent remaining at 1 hour
Method: Metabolic stability was assessed in the presence of human liver microsomes (XenoTech) and mouse liver mirosomes (XenoTech). All liquid was dispensed and transfer steps were performed with the FREEDOM EVO automated liquid handler (Tecan US). NADPH, a required cofactor for CYP450 metabolism, was provided by the NADPH Regenerating System, Solutions A (BD Biosciences) and B (BD Biosciences). Compound stock solutions were initially prepared in 100% DMSO and subsequently diluted in acetonitrile for the assay. The pH of the reactions was kept at ˜7.4 with potassium phosphate buffer (BD Biosciences). The reactions were started after adding NADPH to the reaction plate containing microsomes and compounds and time 0 minutes aliquots were promptly collected and mixed with ice cold acetonitrile (spiked with internal standards) to quench the reactions. The remainder of the reaction volume was incubated at 37° C. with shaking. […] The amount of compound in the supernatant was determined by LC/MS/MS (Applied Biosystems, Sciex API4000 Q-TRAP) and the percent of parent compound remaining after 60 minutes was calculated by the following formula: % parent compound remaining=[(concentration at 60 minutes/concentration at 0 minutes)×100]. […] Results reported are the mean of each reaction triplicate, normalized to the internal standard, and expressed as a percent compound remaining after the incubation time. […]

[2] = Parallel Artificial Membrane Permeability Assay (PAMPA); format: in vitro ADME; conditions: acceptor pH 7.4
Method: Permeability was assessed using the Parallel Artificial Membrane Permeability Assay (PAMPA) in a 96-well format. All liquid dispensed and transfer steps were performed with the FREEDOM EVO automated liquid handler (Tecan US). Measurements were performed in an aqueous buffer solution (PRISMA HT, pION Inc.) at pH 5.0, 6.2, and 7.4, in duplicate. A “sandwich” plate (pION Inc.) composed of a donor bottom plate and an acceptor filter plate was used. The donor wells contained the compounds in 180 μl system solution, and magnetic stir bars. The filter on the bottom of each acceptor well was coated with GIT-0 lipid (pION Inc.) and filled with 200 μl of Acceptor Sink Buffer, pH 7.4 (pION Inc.) containing a surfactant to mimic the function of serum proteins. The permeation time was 30 minutes and moderate stirring (equivalent to 40 μm Aqueous Boundary Layer thickness) was applied using the GUT-BOX (pION, Inc.). After the permeation time, the sandwich was disassembled and the amount of compound present in both the donor and acceptor wells was measured by UV absorbance (250-498 nm) using the Infinite M200 (Tecan US) and compared to spectra obtained from reference standards. Mass balance was used to determine the amount of material embedded in the membrane filter. The effective permeability, Pe, was calculated using the software PAMPA Evolution Plus, version 3.2 (pION Inc). Verapamil HCl (considered highly permeable), Metoprolol (considered moderately permeable), and Ranitidine (considered poorly permeable) were used as reference standards. Permeation time was 30 minutes. Final DMSO concentration was 0.5% and standards and test compounds were assayed at 100 μM.

[3] = test system: HCV replication complexes in Huh-7.5/HCV Con1sg Rluc cells; assay: Indirect immunofluorescence staining of NS5A (replication complexes); format: cell-based, hepatitis C virus; conditions: 10 μM, 72 hours
Method: For indirect immunofluorescence staining, Huh-7.5/HCV Con1sg Rluc cells were plated on cover slips in a 24-well plate. The next day, compounds were added at a 10 μM concentration and after 48 hours from the first addition, the medium was supplemented with 10 μM compound. Interferon alpha-2b was used as positive control at 100 U/well and added at the same time points as compounds. After 72 hours, indirect immunofluorescence staining was performed according to standard methods. Cells were fixed in 1% PFA for 40 minutes, washed thrice with 5 mL PBS, permeabilized with 0.05% saponin (Sigma) and blocked with 3% BSA in PBS for 1 hour at 37° C. Subsequently, cells were washed with 2 mL PBS three times and incubated with mouse monoclonal antibody 9E10 against NS5A diluted in blocking buffer for 1 hour at room temperature. Cells were washed three times with 2 ml PBS and once with 3% BSA. The cells were then incubated with ALEXA 546 conjugated-goat F(ab′)2 anti-mouse immunoglobulin G (IgG) (Invitrogen) for 1 hour at room temperature. Cells were washed twice with PBS and then mounted on glass slides using PROLONG Gold anti-fade reagent (Invitrogen). Appropriate controls were performed to rule out nonspecific binding of primary and secondary antibodies.
Microscopy was performed with a Nikon Ti-E inverted fluorescence microscope using a 20× and 40×/NA 1.4 objective. […]

Cc1ccc2nc(-c3ccc4nc(-c5ccc(NC(=O)c6cccc(Cl)c6)cc5)sc4c3)sc2c1S(=O)(=O)O [Compound 17, 2′-(4-(3-chlorobenzamido)phenyl)-6-methyl-[2,6′-bibenzo[d]thiazole]-7-sulfonic acid]
Hepatic Microsome Stability Mouse [1]: 83.11% | Papp at 30 min, 100 μM ([2]; PAMPA, donor pH 6.2, read-out: PAMPA Pe): 0.22 ×10⁻⁶ cm/s | PAMPA Pe ([2]; donor pH 5.0): 0 (5.0) ×10^−6 cm/s | PAMPA Pe ([2]; donor pH 7.4): 0 (7.4) ×10^−6 cm/s

Cc1ccc2nc(-c3ccc4nc(-c5ccc(NC(=O)c6cc(C(F)(F)F)cc(C(F)(F)F)c6)cc5)sc4c3)sc2c1S(=O)(=O)O [Compound 24, 2′-(4-(3,5-bis(trifluoromethyl)benzamido)phenyl)-6-methyl-[2,6′-bibenzo[d]thiazole]-7-sulfonic acid]
number of HCV replication complexes (NS5A staining) [3]: lower number of replication complexes
